Assay results as given in the supplement of paper PMC12463676, “Small-molecule dissolution of stress granules by redox modulation benefits ALS models” (Nature Chemical Biology, 2025).

Assays:
[1] = compound: NC(=O)CCCCC1CCSS1 [lipoamide]; experiment: thermal stability z-score vs DMSO; higher = more thermally stabilized by treatment; details: HeLa, lipoamide concentration 100 µM
Procedure: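 Cellular thermal proteome profiling in HeLa cells. Cells were treated with 100 µM lipoamide for 1 h, with or without 1 mM arsenate for a further 1 h, then heated to ten temperatures (37-66.3 °C), and soluble protein was quantified by TMT mass spectrometry relative to 0.1% DMSO controls. The thermal stability score (sum of log2 fold changes minus the abundance score) was transformed to a z-score; mean of n = 3 experiments.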

[2] = compound: O=[As]([O-])(O)O.[K+] [potassium arsenate]; experiment: as above; details: HeLa; arsenate concentration 1 mM
Procedure: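 Cellular thermal proteome profiling in HeLa cells treated with 1 mM arsenate for 1 h (DMSO pretreatment), heated to ten temperatures (37-66.3 °C). Soluble protein was quantified by TMT mass spectrometry relative to DMSO controls; the thermal stability score was transformed to a z-score; mean of n = 3 experiments.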

[3] = arsenate co-treatment: 1 mM arsenate 1 h
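Also: each temperature applied for 3 min, abundance score taken as mean log2 fold change at the two lowest temperatures, z-score obtained by mean subtraction and division by SD.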

Chain of UniProt Q5TF39 (Q5TF39 whole entry): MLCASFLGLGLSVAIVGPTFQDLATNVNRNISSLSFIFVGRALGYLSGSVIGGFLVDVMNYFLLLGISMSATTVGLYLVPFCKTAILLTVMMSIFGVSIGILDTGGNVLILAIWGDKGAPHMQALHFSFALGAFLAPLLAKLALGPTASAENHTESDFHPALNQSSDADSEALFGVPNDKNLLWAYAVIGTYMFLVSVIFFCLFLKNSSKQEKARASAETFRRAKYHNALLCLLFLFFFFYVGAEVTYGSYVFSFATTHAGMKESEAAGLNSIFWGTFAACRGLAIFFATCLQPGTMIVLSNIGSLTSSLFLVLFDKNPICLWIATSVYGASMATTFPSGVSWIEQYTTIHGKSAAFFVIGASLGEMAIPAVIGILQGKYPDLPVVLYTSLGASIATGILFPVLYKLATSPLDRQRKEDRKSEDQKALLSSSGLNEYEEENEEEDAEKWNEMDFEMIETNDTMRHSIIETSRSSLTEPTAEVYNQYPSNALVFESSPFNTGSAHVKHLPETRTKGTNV
Chain of UniProt Q9NR31 (Q9NR31 whole entry): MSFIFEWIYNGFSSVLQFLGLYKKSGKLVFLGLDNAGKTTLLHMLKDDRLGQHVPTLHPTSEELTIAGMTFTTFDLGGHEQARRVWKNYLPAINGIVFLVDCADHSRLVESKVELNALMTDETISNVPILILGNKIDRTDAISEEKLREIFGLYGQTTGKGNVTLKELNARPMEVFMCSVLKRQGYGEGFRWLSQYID
Chain of UniProt P51571 (P51571 whole entry): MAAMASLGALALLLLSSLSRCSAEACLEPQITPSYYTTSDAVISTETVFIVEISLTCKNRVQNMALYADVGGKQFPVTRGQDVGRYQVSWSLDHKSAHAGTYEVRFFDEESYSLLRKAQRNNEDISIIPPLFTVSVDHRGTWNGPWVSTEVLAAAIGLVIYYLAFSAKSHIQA
Chain of UniProt P43307 (P43307 whole entry): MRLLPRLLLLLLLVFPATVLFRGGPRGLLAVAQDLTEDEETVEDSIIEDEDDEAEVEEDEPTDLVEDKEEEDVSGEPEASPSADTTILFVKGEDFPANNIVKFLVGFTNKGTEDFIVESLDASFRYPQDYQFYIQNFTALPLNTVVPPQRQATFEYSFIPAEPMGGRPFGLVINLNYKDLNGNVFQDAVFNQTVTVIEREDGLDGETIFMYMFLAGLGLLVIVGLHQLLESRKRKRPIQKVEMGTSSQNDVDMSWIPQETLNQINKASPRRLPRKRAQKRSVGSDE
Chain of UniProt Q9UKV3 (Q9UKV3 whole entry): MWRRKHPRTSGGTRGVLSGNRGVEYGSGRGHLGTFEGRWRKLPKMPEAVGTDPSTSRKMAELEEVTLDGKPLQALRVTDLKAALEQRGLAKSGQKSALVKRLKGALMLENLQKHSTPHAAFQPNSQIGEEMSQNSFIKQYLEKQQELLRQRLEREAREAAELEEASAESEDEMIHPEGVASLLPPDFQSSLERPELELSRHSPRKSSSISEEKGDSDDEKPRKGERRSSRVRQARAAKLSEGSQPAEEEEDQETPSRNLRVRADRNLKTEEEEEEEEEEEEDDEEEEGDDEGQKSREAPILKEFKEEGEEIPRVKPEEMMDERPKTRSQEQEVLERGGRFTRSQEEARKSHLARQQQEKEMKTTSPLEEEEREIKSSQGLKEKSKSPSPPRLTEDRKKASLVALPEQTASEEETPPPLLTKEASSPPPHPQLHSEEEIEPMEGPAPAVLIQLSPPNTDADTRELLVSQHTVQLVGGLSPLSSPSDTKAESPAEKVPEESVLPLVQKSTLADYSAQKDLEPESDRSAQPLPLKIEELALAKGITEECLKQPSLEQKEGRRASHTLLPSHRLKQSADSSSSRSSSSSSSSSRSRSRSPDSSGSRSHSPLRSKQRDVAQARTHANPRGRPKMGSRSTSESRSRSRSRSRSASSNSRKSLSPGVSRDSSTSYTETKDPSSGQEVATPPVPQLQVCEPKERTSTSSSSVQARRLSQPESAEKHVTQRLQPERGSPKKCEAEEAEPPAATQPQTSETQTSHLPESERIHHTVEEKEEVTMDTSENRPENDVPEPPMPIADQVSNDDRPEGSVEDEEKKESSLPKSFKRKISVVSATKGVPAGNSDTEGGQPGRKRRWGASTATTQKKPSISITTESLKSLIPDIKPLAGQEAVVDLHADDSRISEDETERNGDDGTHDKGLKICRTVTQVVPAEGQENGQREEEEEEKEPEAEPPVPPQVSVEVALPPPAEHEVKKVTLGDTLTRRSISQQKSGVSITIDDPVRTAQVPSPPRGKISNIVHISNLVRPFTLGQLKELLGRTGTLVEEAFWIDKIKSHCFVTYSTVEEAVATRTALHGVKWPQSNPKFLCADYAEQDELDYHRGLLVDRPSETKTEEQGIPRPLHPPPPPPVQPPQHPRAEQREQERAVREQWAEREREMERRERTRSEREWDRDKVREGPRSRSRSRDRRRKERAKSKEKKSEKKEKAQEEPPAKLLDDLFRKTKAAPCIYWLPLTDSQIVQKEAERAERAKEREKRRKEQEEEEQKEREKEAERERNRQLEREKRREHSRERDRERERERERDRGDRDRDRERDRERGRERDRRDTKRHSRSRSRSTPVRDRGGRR
Chain of UniProt Q9BQ67 (Q9BQ67 whole entry): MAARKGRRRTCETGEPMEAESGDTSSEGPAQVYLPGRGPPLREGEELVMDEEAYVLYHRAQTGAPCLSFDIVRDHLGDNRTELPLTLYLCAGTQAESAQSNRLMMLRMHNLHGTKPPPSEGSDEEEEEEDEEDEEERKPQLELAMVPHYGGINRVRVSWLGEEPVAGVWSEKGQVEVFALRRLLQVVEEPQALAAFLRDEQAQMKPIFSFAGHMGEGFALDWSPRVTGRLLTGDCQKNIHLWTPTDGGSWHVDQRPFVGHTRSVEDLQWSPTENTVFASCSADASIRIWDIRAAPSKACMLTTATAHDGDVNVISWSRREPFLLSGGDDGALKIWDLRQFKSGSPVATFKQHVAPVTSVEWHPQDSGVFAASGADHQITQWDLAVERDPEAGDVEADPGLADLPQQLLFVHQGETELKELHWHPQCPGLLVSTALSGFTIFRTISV
Chain of UniProt Q9NQW7 (Q9NQW7 whole entry): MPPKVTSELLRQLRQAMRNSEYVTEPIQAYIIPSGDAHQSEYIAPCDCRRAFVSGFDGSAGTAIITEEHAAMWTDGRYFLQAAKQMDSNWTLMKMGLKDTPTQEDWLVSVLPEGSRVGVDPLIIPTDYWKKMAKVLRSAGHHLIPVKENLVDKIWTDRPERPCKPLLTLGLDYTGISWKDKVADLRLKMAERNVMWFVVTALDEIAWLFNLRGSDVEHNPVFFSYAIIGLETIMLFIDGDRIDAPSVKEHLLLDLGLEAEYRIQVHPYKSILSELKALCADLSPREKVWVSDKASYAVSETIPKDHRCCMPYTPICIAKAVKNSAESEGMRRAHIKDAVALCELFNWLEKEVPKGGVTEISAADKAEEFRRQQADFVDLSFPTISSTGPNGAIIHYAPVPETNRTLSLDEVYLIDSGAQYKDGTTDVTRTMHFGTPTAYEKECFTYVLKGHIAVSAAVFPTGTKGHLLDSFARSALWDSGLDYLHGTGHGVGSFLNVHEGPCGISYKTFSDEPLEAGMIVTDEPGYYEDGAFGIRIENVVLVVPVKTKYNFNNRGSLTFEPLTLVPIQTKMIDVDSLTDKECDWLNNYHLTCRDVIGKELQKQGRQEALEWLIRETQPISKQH
Chain of UniProt Q9UK41 (Q9UK41 whole entry): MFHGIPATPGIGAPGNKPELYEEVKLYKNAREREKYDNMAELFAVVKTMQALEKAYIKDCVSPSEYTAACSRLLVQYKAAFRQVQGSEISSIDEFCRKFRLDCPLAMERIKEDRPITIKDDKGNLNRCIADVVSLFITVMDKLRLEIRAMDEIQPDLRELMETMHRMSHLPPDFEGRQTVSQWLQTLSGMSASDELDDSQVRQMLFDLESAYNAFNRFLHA
Chain of UniProt Q5U4P2 (Q5U4P2 whole entry): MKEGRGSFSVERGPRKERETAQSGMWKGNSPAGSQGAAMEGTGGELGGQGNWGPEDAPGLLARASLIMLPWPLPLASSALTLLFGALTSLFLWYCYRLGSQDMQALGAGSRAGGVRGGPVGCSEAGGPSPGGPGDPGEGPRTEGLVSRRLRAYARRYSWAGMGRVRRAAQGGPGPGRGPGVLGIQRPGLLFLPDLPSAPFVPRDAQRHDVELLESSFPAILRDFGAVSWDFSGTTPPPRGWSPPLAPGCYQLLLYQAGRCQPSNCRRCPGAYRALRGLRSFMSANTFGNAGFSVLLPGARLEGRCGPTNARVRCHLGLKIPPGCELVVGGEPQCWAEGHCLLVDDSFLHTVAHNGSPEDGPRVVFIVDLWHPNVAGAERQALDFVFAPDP
Chain of UniProt P05556 (P05556 whole entry): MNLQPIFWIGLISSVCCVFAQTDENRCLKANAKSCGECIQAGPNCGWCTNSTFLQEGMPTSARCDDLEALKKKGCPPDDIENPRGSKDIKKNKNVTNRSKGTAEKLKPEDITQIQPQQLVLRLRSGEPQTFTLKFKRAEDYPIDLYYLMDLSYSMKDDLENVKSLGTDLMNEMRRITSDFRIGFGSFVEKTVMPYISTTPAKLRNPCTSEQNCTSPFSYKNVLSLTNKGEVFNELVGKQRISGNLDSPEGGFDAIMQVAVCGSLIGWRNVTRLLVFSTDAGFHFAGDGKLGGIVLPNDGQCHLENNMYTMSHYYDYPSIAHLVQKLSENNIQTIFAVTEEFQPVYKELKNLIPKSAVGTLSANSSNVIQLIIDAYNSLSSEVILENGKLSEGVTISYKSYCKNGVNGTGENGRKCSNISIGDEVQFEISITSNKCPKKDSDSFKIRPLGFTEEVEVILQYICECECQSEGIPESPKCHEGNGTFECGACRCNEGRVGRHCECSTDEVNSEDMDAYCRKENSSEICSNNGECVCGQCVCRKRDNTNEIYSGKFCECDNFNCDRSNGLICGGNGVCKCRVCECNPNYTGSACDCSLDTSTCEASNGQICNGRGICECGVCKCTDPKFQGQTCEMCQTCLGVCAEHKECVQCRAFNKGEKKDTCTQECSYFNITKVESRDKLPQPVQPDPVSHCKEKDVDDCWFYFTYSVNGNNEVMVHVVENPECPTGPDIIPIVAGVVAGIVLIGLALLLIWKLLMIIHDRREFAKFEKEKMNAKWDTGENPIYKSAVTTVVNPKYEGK

Target	thermal stability z-score [1, 3]	thermal stability z-score ([1]; arsenate co-treatment: none)	thermal stability z-score [2]
GINS1 (UniProt Q14691)	-0.512	-0.399	-0.404
AAAS (UniProt Q9NRG9)	-0.373	-0.12	0.108
SLC25A32 (UniProt Q9H2D1)	-0.958	-1.17	-0.601
RAB18 (UniProt Q9NP72)	0.167	0.352	0.672
WDR74 (UniProt Q6RFH5)	-1.21	-0.713	-0.205
SRSF1 (UniProt Q07955)	2.02	0.446	-0.17
XPNPEP1 (UniProt Q9NQW7)	1.5	0.794	-0.738
CDR2 (UniProt Q01850)	0.134	0.141	0.139
GRWD1 (UniProt Q9BQ67)	0.304	0.0318	-0.541
TRAPPC2L (UniProt Q9UL33)	-0.426	0.338	-0.119
PRDX3 (UniProt P30048)	0.429	0.812	-0.448
TMEM206 (UniProt Q9H813)	0.109	0.0248	-0.299
RAB1B (UniProt Q9H0U4)	0.238	0.549	0.196
PMF1 (UniProt Q6P1K2)	0.0314	-0.0395	0.367
ENGASE (UniProt Q8NFI3)	0.198	0.101	-0.36
CHMP2B (UniProt Q9UQN3)	0.562	0.348	0.573
TBC1D10A (UniProt Q9BXI6)	-0.00261	-0.137	0.0768
PDP1 (UniProt Q9P0J1)	0.0374	-0.191	-0.0616
ASPHD1 (UniProt Q5U4P2)	-0.334	0.214	-0.276
CLPTM1 (UniProt O96005)	-3.11	-2.81	0.0364
C4BPA (UniProt P04003)	-5.7	-5.12	1.08
ALG1 (UniProt Q9BT22)	-0.337	0.0286	0.115
ANAPC1 (UniProt Q9H1A4)	0.11	0.139	0.0453
ZC3H18 (UniProt Q86VM9)	1.11	0.987	-1.11
AP1M1 (UniProt Q9BXS5)	0.126	-0.43	0.791
VPS28 (UniProt Q9UK41)	0.513	0.681	0.492
MFSD4B (UniProt Q5TF39)	-0.227	0.265	-0.129
CHCHD4 (UniProt Q8N4Q1)	0.0185	0.497	-0.236

Target	thermal stability z-score [1, 3]	thermal stability z-score ([1]; arsenate co-treatment: none)	thermal stability z-score [2]
SAR1A (UniProt Q9NR31)	0.174	0.266	0.248
SNX12 (UniProt Q9UMY4)	-0.128	-0.00318	0.108
KLC2 (UniProt Q9H0B6)	-0.0443	0.117	0.557
TMEM259 (UniProt Q4ZIN3)	-0.193	-0.832	0.701
SULT1A4|SULT1A3	-0.787	0.186	1.16
PKMYT1 (UniProt Q99640)	-0.143	-0.144	-0.0435
CAMK2G (UniProt Q13555)	-0.504	-0.174	0.174
LLPH (UniProt Q9BRT6)	-1.21	-1.15	-2.48
RAB34	0.732	0.783	-0.0345
MT (UniProt Q8IVS2)	-0.281	-0.555	-0.404
RUVBL1 (UniProt Q9Y265)	-0.0828	0.115	-0.662
BLOC1S1 (UniProt P78537)	-0.0484	0.202	-0.255
URI1 (UniProt O94763)	-0.325	-0.193	0.52
FAM118B (UniProt Q9BPY3)	0.49	-0.244	0.57
OCIAD2 (UniProt Q56VL3)	0.194	0.205	0.549
ITGB1 (UniProt P05556)	-0.614	-0.431	0.139
ACIN1 (UniProt Q9UKV3)	1.66	0.763	0.115
MEMO1 (UniProt Q9Y316)	0.326	0.0877	0.0822
PRCC (UniProt Q92733)	0.409	-0.0293	0.465
RAB3GAP1 (UniProt Q15042)	-0.562	-0.113	0.764
SSR4 (UniProt P51571)	-1.7	-1.43	-0.649
DHRS3 (UniProt O75911)	-0.614	-0.616	-0.762
RPL37A (UniProt P61513)	0.766	0.392	-0.29
SSR1 (UniProt P43307)	-1.49	-0.782	-1.26
ANAPC7 (UniProt Q9UJX3)	0.306	0.186	0.251
DHRS1 (UniProt Q96LJ7)	-0.121	0.743	0.812
PKM (UniProt P14618)	0.109	0.0166	-0.166
